For 19 compounds, GI50 results are on record in US11999716B2, “WDR5 inhibitors and modulators” (priority 2018, dated 2024).

One experiment relates to MV4:11 human cancer cell lines. The experiment is described as follows: Cellular viability / anti-proliferative activity, CellTiter-Glo, 5 day protocol. The format is cell-based. As to conditions: Homo sapiens, MV4-11, 120 h, MV4:11 cells; 5 day incubation; CellTiter-Glo; mean of minimum two replicates; read-out: GI50 on cellular proliferation of MV4:11 human cancer cell lines. The essentials: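 Compounds were tested over 22 two-fold dilutions starting at 30 μM in 0.3% DMSO, with 200 cells per well (7200 cells/mL). Viability was measured by CellTiter-Glo luminescence at day 5.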
In general terms: Cellular ATP, detected with luciferase, serves as a proxy for viable cell number.
Consider `Cc1nccn1Cc1cc2c(c(-c3cn(C)nc3C(F)(F)F)c1)CCN(Cc1cc(Cl)cc3ccccc13)C2=O` [Example 225, 2-((3-Chloronaphthalen-1-yl)methyl)-7-((2-methyl-1H-imidazol-1-yl)methyl)-5-(1-methyl-3-(trifluoromethyl)-1H-pyrazol-4-yl)-3,4-dihydroisoquinolin-1(2H)-one], for which the GI50 came out at 195 nM. Turning to `Cc1nccn1Cc1cc2c(c(-c3cn(C)nc3C(F)(F)F)c1)CCN(CC1CCCCN1C)C2=O` (stereo not shown) [Example 171, 7-((2-Methyl-1H-imidazol-1-yl)methyl)-5-(1-methyl-3-(trifluoromethyl)-1H-pyrazol-4-yl)-2-((1-methylpiperidin-2-yl)methyl)-3,4-dihydroisoquinolin-1(2H)-one], the GI50 worked out at 6900 nM. As for `COc1ccnc(CN2CCc3c(cc(Cn4ccccc4=N)cc3-c3cn(C)nc3C)C2=O)c1` [Example 117, 5-(1,3-Dimethyl-1H-pyrazol-4-yl)-7-((2-iminopyridin-1(2H)-yl)methyl)-2-((4-methoxypyridin-2-yl)methyl)-3,4-dihydroisoquinolin-1(2H)-one], the GI50 was over 938 nM. As for `CCn1cc(-c2cc(Cn3ccnc3NC)cc3c2CCN([C@@H](C)c2cc(OC)ccn2)C3=O)c(C(F)(F)F)n1` [Example 161, (S)-5-(1-Ethyl-3-(trifluoromethyl)-1H-pyrazol-4-yl)-2-(1-(4-methoxypyridin-2-yl)ethyl)-7-((2-(methylamino)-1H-imidazol-1-yl)methyl)-3,4-dihydroisoquinolin-1(2H)-one], the GI50 is under 50 nM. As to `Cc1ccnc([C@H](C2CC2)N2CCc3c(cc(Cn4ccn(C)c4=N)cc3-c3ccc(F)cc3C)C2=O)c1` [Example 37, (S)-2-(Cyclopropyl(4-methylpyridin-2-yl)methyl)-5-(4-fluoro-2-methylphenyl)-7-((2-imino-3-methyl-2,3-dihydro-1H-imidazol-1-yl)methyl)-3,4-dihydroisoquinolin-1(2H)-one], the GI50 was under 50 nM.

Take `Cc1nccn1Cc1cc2c(c(-c3cn(C)nc3C(F)(F)F)c1)CCN(Cc1ccccc1)C2=O` [Example 233, 2-Benzyl-7-((2-methyl-1H-imidazol-1-yl)methyl)-5-(1-methyl-3-(trifluoromethyl)-1H-pyrazol-4-yl)-3,4-dihydroisoquinolin-1(2H)-one]: the GI50 came out at 748 nM. Take `Cc1nccn1Cc1cc2c(c(-c3cn(C)nc3C(F)(F)F)c1)CCN(CC1CCC(=O)N(C)C1)C2=O` (stereo not shown) [Example 172, 7-((2-Methyl-1H-imidazol-1-yl)methyl)-5-(1-methyl-3-(trifluoromethyl)-1H-pyrazol-4-yl)-2-((1-methyl-6-oxopiperidin-3-yl)methyl)-3,4-dihydroisoquinolin-1(2H)-one]: the GI50 amounted to 221 nM. Same read-out and setting: the same measure for `COc1cc(CN2CCc3c(cc(CN4CCCC4=N)cc3-c3ccc(F)cc3C)C2=O)cc(OC)c1` [Example 113, 2-(3,5-Dimethoxybenzyl)-5-(4-fluoro-2-methylphenyl)-7-((2-iminopyrrolidin-1-yl)methyl)-3,4-dihydroisoquinolin-1(2H)-one]: 462 nM. On the same count and under the same terms, for `Cc1cc2c(c(CN3CCc4c(cc(Cn5ccnc5C)cc4-c4cn(C)nc4C(F)(F)F)C3=O)c1)OCC2` [Example 218, 7-((2-Methyl-1H-imidazol-1-yl)methyl)-2-((5-methyl-2,3-dihydrobenzofuran-7-yl)methyl)-5-(1-methyl-3-(trifluoromethyl)-1H-pyrazol-4-yl)-3,4-dihydroisoquinolin-1(2H)-one] the value was under 50 nM; for `CCn1cc(-c2cc(Cn3cnn(C)c3=N)cc3c2CCN(Cc2cc(OC)ccn2)C3=O)c(C(F)(F)F)n1` [Example 123, 5-(1-Ethyl-3-(trifluoromethyl)-1H-pyrazol-4-yl)-7-((5-imino-1-methyl-1,5-dihydro-4H-1,2,4-triazol-4-yl)methyl)-2-((4-methoxypyridin-2-yl)methyl)-3,4-dihydroisoquinolin-1(2H)-one], under 50 nM; for `Cc1cc(C)nc([C@H](C)N2CCc3c(cc(Cn4ccnc4C)cc3-c3cn(C)nc3C(F)(F)F)C2=O)c1` [Example 165, (S)-2-(1-(4,6-Dimethylpyridin-2-yl)ethyl)-7-((2-methyl-1H-imidazol-1-yl)methyl)-5-(1-methyl-3-(trifluoromethyl)-1H-pyrazol-4-yl)-3,4-dihydroisoquinolin-1(2H)-one], under 50 nM. With `CCn1cc(-c2cc(Cn3ccnc3C3CC3)cc3c2CCN(Cc2cc(C)nn2C)C3=O)c(C(F)(F)F)n1` [Example 14, 7-((2-Cyclopropyl-1H-imidazol-1-yl)methyl)-2-((1,3-dimethyl-1H-pyrazol-5-yl)methyl)-5-(1-ethyl-3-(trifluoromethyl)-1H-pyrazol-4-yl)-3,4-dihydroisoquinolin-1(2H)-one], the GI50 is over 938 nM. As for `CCc1ccnc(CN2CCc3c(cc(Cn4cc(C)nc4C)cc3-c3cn(CC)nc3C(F)(F)F)C2=O)c1` [Example 22, 7-((2,4-Dimethyl-1H-imidazol-1-yl)methyl)-5-(1-ethyl-3-(trifluoromethyl)-1H-pyrazol-4-yl)-2-((4-ethylpyridin-2-yl)methyl)-3,4-dihydroisoquinolin-1(2H)-one], the GI50 is 145 nM. In the case of `Cc1nccn1Cc1cc2c(c(-c3cn(C)nc3C(F)(F)F)c1)CCN(Cc1cn(C(C)C)c3ccccc13)C2=O` [Example 193, 2-((1-Isopropyl-1H-indol-3-yl)methyl)-7-((2-methyl-1H-imidazol-1-yl)methyl)-5-(1-methyl-3-(trifluoromethyl)-1H-pyrazol-4-yl)-3,4-dihydroisoquinolin-1(2H)-one], the GI50 is 2330 nM.

Take `CCn1cc(-c2cc(Cn3ccnc3C)cc3c2CCN([C@@H](C)c2cc(OC)ccn2)C3=O)c(C(F)(F)F)n1` [Example 156, (S)-5-(1-Ethyl-3-(trifluoromethyl)-1H-pyrazol-4-yl)-2-(1-(4-methoxypyridin-2-yl)ethyl)-7-((2-methyl-1H-imidazol-1-yl)methyl)-3,4-dihydroisoquinolin-1(2H)-one]: the GI50 was under 50 nM. As for `COc1cc(CN2CCc3c(cc(Cn4ccnc4C)cc3-c3ccc(F)cc3C)C2=O)cc(OC)c1` [Example 6, 2-(3,5-Dimethoxybenzyl)-5-(4-fluoro-2-methylphenyl)-7-((2-methyl-1H-imidazol-1-yl)methyl)-3,4-dihydroisoquinolin-1(2H)-one], the GI50 was determined as 301 nM. Consider `Cc1cncc([C@H](C)N2CCc3c(cc(Cn4ccnc4C)cc3-c3cn(C)nc3C(F)(F)F)C2=O)c1` [Example 200, (S)-7-((2-Methyl-1H-imidazol-1-yl)methyl)-5-(1-methyl-3-(trifluoromethyl)-1H-pyrazol-4-yl)-2-(1-(5-methylpyridin-3-yl)ethyl)-3,4-dihydroisoquinolin-1(2H)-one], for which the GI50 was under 50 nM. The same measure, in the same setting: for `CC[C@H](c1cncc(C)c1)N1CCc2c(cc(Cn3ccnc3C)cc2-c2cn(C)nc2C(F)(F)F)C1=O` [Example 198, (R)-7-((2-Methyl-1H-imidazol-1-yl)methyl)-5-(1-methyl-3-(trifluoromethyl)-1H-pyrazol-4-yl)-2-(1-(5-methylpyridin-3-yl)propyl)-3,4-dihydroisoquinolin-1(2H)-one] the value was 62 nM.

The same experiment, now with this note: MV4:11 cells; 5 day incubation; CellTiter-Glo; mean of minimum two replicates; read-out: GI50 on cellular proliferation of MV4:11 human cancer cell lines.
On to `Cc1cc([C@H](C)N2CCc3c(cc(Cn4ccnc4)cc3-c3cn(C)nc3C(F)(F)F)C2=O)ncc1F` [Example 201, (S)-7-((1H-imidazol-1-yl)methyl)-2-(1-(5-fluoro-4-methylpyridin-2-yl)ethyl)-5-(1-methyl-3-(trifluoromethyl)-1H-pyrazol-4-yl)-3,4-dihydroisoquinolin-1(2H)-one], for which the GI50 is under 50 nM.
